Experimental data reported in PubChem BioAssay AID330 (DTP/NCI, 2004).
Where “and” joins values, the source holds several entries; their conditions need not be identical. Equal values may be shown once. Toxic doses and inconclusive results are not listed.

System: P388 leukemia ip, CD2F1 mice, survival T/C
Assay: NCI In Vivo Anticancer Drug Screen. Data for tumor model P388 Leukemia (intraperitoneal) in CD2F1 (CDF1) mice
Settings: endpoint: median survival time, higher = longer survival
Summary of the method: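 Mice carrying the transplanted tumor received test compound or vehicle. Survival was recorded in each group, and the value is the treated-group measurement divided by that of the vehicle-treated control group.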

[1] = dose: 25.0 mg/kg/injection, schedule: Q01DX005 (ip), vehicle: Klucel (hydroxypropylcellulose) (HPC)
[2] = dose: 50.0 mg/kg/injection, schedule: Q01DX005 (ip), vehicle: Klucel (hydroxypropylcellulose) (HPC)
[3] = dose: 100.0 mg/kg/injection, schedule: Q01DX005 (ip), vehicle: Klucel (hydroxypropylcellulose) (HPC)
[4] = dose: 200.0 mg/kg/injection, schedule: Q01DX005 (ip), vehicle: Klucel (hydroxypropylcellulose) (HPC)
[5] = dose: 50.0 mg/kg/injection, schedule: Q01DX005 (ip), vehicle: saline with Tween-80
[6] = dose: 100.0 mg/kg/injection, schedule: Q01DX005 (ip), vehicle: saline with Tween-80
[7] = dose: 200.0 mg/kg/injection, schedule: Q01DX005 (ip), vehicle: saline with Tween-80
[8] = dose: 30.0 mg/kg/injection, schedule: Q01DX005 (ip), vehicle: saline with Tween-80
[9] = dose: 60.0 mg/kg/injection, schedule: Q01DX005 (ip), vehicle: saline with Tween-80
[10] = dose: 120.0 mg/kg/injection, schedule: Q01DX005 (ip), vehicle: saline with Tween-80
[11] = dose: 240.0 mg/kg/injection, schedule: Q01DX005 (ip), vehicle: saline with Tween-80
[12] = dose: 50.0 mg/kg/injection, schedule: Q01DX005 (ip), vehicle: saline
[13] = dose: 100.0 mg/kg/injection, schedule: Q01DX009 (ip), vehicle: saline with Tween-80
[14] = dose: 200.0 mg/kg/injection, schedule: Q01DX009 (ip), vehicle: saline with Tween-80
[15] = dose: 200.0 mg/kg/injection, schedule: Q04DX003 (ip), vehicle: saline with Tween-80

CC(C)=CC(O)C/C(C)=C/CC/C(C)=C/CCC1(C)C(CCCO)/C(=C(/C)C=O)CCC1(C)O (stereo not drawn)
T/C [1]: 106 % of control | T/C [2]: 106 % of control | T/C [3]: 119 % of control | T/C [4]: 116 % of control

[Se]c1nccn2cnnc12
T/C (dose: 1.56 mg/kg/injection, schedule: Q01DX001 (ip), vehicle: saline): 99 % of control and 101 % of control | T/C (dose: 3.12 mg/kg/injection, schedule: Q01DX001 (ip), vehicle: saline): 100 % of control and 96 % of control | T/C (dose: 6.25 mg/kg/injection, schedule: Q01DX001 (ip), vehicle: saline): 99 % of control and 105 % of control | T/C (dose: 12.5 mg/kg/injection, schedule: Q01DX001 (ip), vehicle: saline): 103 % of control and 109 % of control

CC(=O)OCC1OC(Nc2ncc(-c3ccc(C)cc3)s2)C(OC(C)=O)C(OC(C)=O)C1OC(C)=O (stereo not drawn)
T/C [5]: 98 % of control | T/C [6]: 98 % of control | T/C [7]: 92 % of control

O=C(NCc1ccco1)Nc1cccc2c(NC(=O)NCc3ccco3)cccc12
T/C [8]: 100 % of control | T/C [9]: 97 % of control | T/C [10]: 90 % of control | T/C [11]: 86 % of control

COc1cc(O)c(C/C=C/c2ccccc2)cc1O
T/C (dose: 2.5 mg/kg/injection, schedule: Q01DX009 (ip), vehicle: saline with Tween-80): 102 % of control | T/C (dose: 5.0 mg/kg/injection, schedule: Q01DX009 (ip), vehicle: saline with Tween-80): 105 % of control | T/C (dose: 10.0 mg/kg/injection, schedule: Q01DX009 (ip), vehicle: saline with Tween-80): 103 % of control

COc1ccc(/C=C/C(=O)c2ccccc(=O)c2O)c(OC)c1
T/C [1]: 101 % of control | T/C [2]: 98 % of control | T/C [3]: 105 % of control | T/C [4]: 104 % of control

CC(=O)NCCCCCC(=O)N(C)C
T/C [2]: 96 % of control | T/C [3]: 90 % of control | T/C [4]: 98 % of control | T/C (dose: 400.0 mg/kg/injection, schedule: Q01DX005 (ip), vehicle: Klucel (hydroxypropylcellulose) (HPC)): 98 % of control

CN(C)C(=C[N+](=O)[O-])N(C)C
T/C (dose: 50.0 mg/kg/injection, schedule: Q01DX009 (ip), vehicle: saline): 101 % of control | T/C (dose: 100.0 mg/kg/injection, schedule: Q01DX009 (ip), vehicle: saline): 103 % of control | T/C (dose: 200.0 mg/kg/injection, schedule: Q01DX009 (ip), vehicle: saline): 104 % of control

CNC(=O)OCc1c(COC(=O)NC)c2n(c1C)-c1ccc(OC)cc1CCC2
T/C (dose: 7.5 mg/kg/injection, schedule: Q01DX005 (ip), vehicle: Klucel (hydroxypropylcellulose) (HPC)): 119 % of control | T/C (dose: 15.0 mg/kg/injection, schedule: Q01DX005 (ip), vehicle: Klucel (hydroxypropylcellulose) (HPC)): 122 % of control

COC(=O)c1cccc2c1Oc1ccccc1S2
T/C [1]: 102 % of control | T/C [2]: 103 % of control | T/C [3]: 102 % of control | T/C [4]: 100 % of control

O=C1C2C3C4C5C(C2C5(Br)C32OCCO2)C14Br (stereo not drawn)
T/C (dose: 100.0 mg/kg/injection, schedule: Q04DX003 (ip), vehicle: Klucel (hydroxypropylcellulose) (HPC)): 106 % of control | T/C (dose: 200.0 mg/kg/injection, schedule: Q04DX003 (ip), vehicle: Klucel (hydroxypropylcellulose) (HPC)): 107 % of control | T/C (dose: 400.0 mg/kg/injection, schedule: Q04DX003 (ip), vehicle: Klucel (hydroxypropylcellulose) (HPC)): 113 % of control

COc1ccc(C(c2c(O)c3ccccc3oc2=O)N2CCCC2)cc1 (stereo not drawn)
T/C (dose: 15.0 mg/kg/injection, schedule: Q01DX005 (ip), vehicle: saline with Tween-80): 100 % of control | T/C [8]: 100 % of control | T/C [9]: 103 % of control and 97 % of control

ClCC#CCCl
T/C (dose: 6.25 mg/kg/injection, schedule: Q01DX009 (ip), vehicle: saline with Tween-80): 102 % of control | T/C (dose: 12.5 mg/kg/injection, schedule: Q01DX009 (ip), vehicle: saline with Tween-80): 99 % of control

CO[C@@]12[C@H](COC(N)=O)C3=C(C(=O)C(C)=C(NCCO)C3=O)N1C[C@@H]1N[C@@H]12
T/C (dose: 12.5 mg/kg/injection, schedule: Q01DX009 (ip), vehicle: saline sonified): 95 % of control | T/C (dose: 12.5 mg/kg/injection, schedule: Q04DX003 (ip), vehicle: saline with Tween-80): 100 % of control | T/C (dose: 25.0 mg/kg/injection, schedule: Q01DX009 (ip), vehicle: saline sonified): 95 % of control | T/C (dose: 25.0 mg/kg/injection, schedule: Q04DX003 (ip), vehicle: saline with Tween-80): 100 % of control | T/C (dose: 50.0 mg/kg/injection, schedule: Q01DX009 (ip), vehicle: saline sonified): 95 % of control | T/C (dose: 50.0 mg/kg/injection, schedule: Q04DX003 (ip), vehicle: saline with Tween-80): 100 % of control

Cn1c(CN(Cc2nc3ccccc3n2C)Cc2nc3ccccc3n2C)nc2ccccc21
T/C (dose: 12.5 mg/kg/injection, schedule: Q01DX005 (ip), vehicle: saline with Tween-80): 103 % of control and 98 % of control | T/C (dose: 25.0 mg/kg/injection, schedule: Q01DX005 (ip), vehicle: saline with Tween-80): 100 % of control and 102 % of control | T/C [5]: 103 % of control and 110 % of control

CCOC(=O)CNCCN(CC)CC
T/C (dose: 100.0 mg/kg/injection, schedule: Q01DX001 (ip), vehicle: saline with Tween-80): 109 % of control | T/C (dose: 200.0 mg/kg/injection, schedule: Q01DX001 (ip), vehicle: saline with Tween-80): 95 % of control | T/C (dose: 400.0 mg/kg/injection, schedule: Q01DX001 (ip), vehicle: saline with Tween-80): 100 % of control

O=C(Cc1nc2cc(Cl)c(Cl)cc2nc1CC(=O)c1ccccc1)c1ccccc1
T/C [9]: 102 % of control | T/C [10]: 94 % of control | T/C [11]: 96 % of control

C=CCNC(=S)NNC(=O)Cc1nc2ccccc2[nH]1
T/C [2]: 98 % of control | T/C [3]: 97 % of control | T/C [4]: 92 % of control

CCCCC(=C=NCCCN(C)C)CC
T/C [12]: 99 % of control | T/C (dose: 100.0 mg/kg/injection, schedule: Q01DX005 (ip), vehicle: saline): 92 % of control | T/C (dose: 200.0 mg/kg/injection, schedule: Q01DX005 (ip), vehicle: saline): 101 % of control

O=[N+]([O-])c1ccc(OP(=O)(Oc2ccc([N+](=O)[O-])cc2)N(CCCl)CCCl)cc1
T/C (dose: 18.8 mg/kg/injection, schedule: Q01DX001 (ip), vehicle: other): 108 % of control | T/C (dose: 37.5 mg/kg/injection, schedule: Q01DX001 (ip), vehicle: other): 112 % of control | T/C (dose: 75.0 mg/kg/injection, schedule: Q01DX001 (ip), vehicle: other): 113 % of control | T/C (dose: 150.0 mg/kg/injection, schedule: Q01DX001 (ip), vehicle: other): 115 % of control | T/C (dose: 300.0 mg/kg/injection, schedule: Q01DX001 (ip), vehicle: other): 99 % of control

CCN(CC)[Si](C)(C)C
T/C (dose: 60.0 mg/kg/injection, schedule: Q01DX005 (ip), vehicle: saline): 93 % of control | T/C (dose: 120.0 mg/kg/injection, schedule: Q01DX005 (ip), vehicle: saline): 94 % of control

COc1ccc2c(c1)CC(C)[N+]([O-])=C2C(F)(F)F (stereo not drawn)
T/C [5]: 99 % of control | T/C [6]: 102 % of control | T/C [7]: 104 % of control

O=P(Oc1ccc(OP(=O)(N2CC2)N2CC2)cc1)(N1CC1)N1CC1
T/C [13]: 154 % of control | T/C [14]: 181 % of control | T/C [15]: 154 % of control | T/C (dose: 264.0 mg/kg/injection, schedule: Q04DX003 (ip), vehicle: saline with Tween-80): 166 % of control | T/C (dose: 400.0 mg/kg/injection, schedule: Q04DX003 (ip), vehicle: saline with Tween-80): 166 % of control

CN1CCC(=C2c3ccccc3CC(O)c3sccc32)CC1 (stereo not drawn)
T/C (dose: 100.0 mg/kg/injection, schedule: Q04DX003 (ip), vehicle: saline with Tween-80): 94 % of control | T/C [15]: 98 % of control

COC(=O)C12N=NN(c3ccccc3)C1(C(=O)OC)C1CCC2C1 (stereo not drawn)
T/C [13]: 95 % of control | T/C [14]: 100 % of control | T/C (dose: 400.0 mg/kg/injection, schedule: Q01DX009 (ip), vehicle: saline with Tween-80): 90 % of control

CCOC(=O)C(c1ccccc1)N(CCCN(CC)CC)c1ccccc1 (stereo not drawn)
T/C (dose: 12.5 mg/kg/injection, schedule: Q01DX005 (ip), vehicle: saline): 108 % of control | T/C (dose: 25.0 mg/kg/injection, schedule: Q01DX005 (ip), vehicle: saline): 108 % of control | T/C [5]: 100 % of control | T/C [12]: 101 % of control
